Reference: patent US20220213066A1, “SALTS OF A CLASS OF PYRIMIDINE COMPOUNDS, POLYMORPHS, AND PHARMACEUTICAL COMPOSITIONS THEREOF, PREAPRATION METHODS THEREFOR AND USES THEREOF” (INVENTISBIO CO., LTD., priority 2019, published 2022)
Counter-ions that a name gives are not always drawn.

Test: dynamic vapor absorption and desorption analysis (DVS)
Type: physicochemical
Details: DVS, 25° C., 80% relative humidity
Method: The instrument used in dynamic vapor absorption and desorption analysis (DVS) was DVS Intrinsic (SMS, UK). The sample was placed in the sample basket of the instrument for automatic weighing, then heated to 40° C., and dried under a nitrogen stream to a dm/dt of less than 0.002%. The measurement was started after the temperature was dropped to 25° C., The instrument parameters were as follows.
Time per step: 60 min Sample temperature: 25° C. Cycle: entire cycle
Data storage rate: 5 s Total flow rate: 200 sccm Total flow rate after the test: 200 sccm

Structure (SMILES) | weight gain under 80% relative humidity
C=CC(=O)Nc1cc(Nc2nccc(-c3cn(CC(F)(F)F)c4ccccc34)n2)c(OC)cc1N(C)CCN(C)C [crystalline form I of p-toluenesulfonate] | about 0.55%
C=CC(=O)Nc1cc(Nc2nccc(-c3cn(CC(F)(F)F)c4ccccc34)n2)c(OC)cc1N(C)CCN(C)C [crystalline form I of sulfate] | about 3.31%
C=CC(=O)Nc1cc(Nc2nccc(-c3cn(CC(F)(F)F)c4ccccc34)n2)c(OC)cc1N(C)CCN(C)C [crystalline form I of benzenesulfonate] | about 0.41%
C=CC(=O)Nc1cc(Nc2nccc(-c3cn(CC(F)(F)F)c4ccccc34)n2)c(OC)cc1N(C)CCN(C)C [crystalline form I of phosphate] | about 0.61%
C=CC(=O)Nc1cc(Nc2nccc(-c3cn(CC(F)(F)F)c4ccccc34)n2)c(OC)cc1N(C)CCN(C)C [crystalline form III of hydrochloride] | about 1.86%
C=CC(=O)Nc1cc(Nc2nccc(-c3cn(CC(F)(F)F)c4ccccc34)n2)c(OC)cc1N(C)CCN(C)C [crystalline form I of succinate] | about 0.57%

Same assay, conditions: DVS, 25° C., graded in words

Structure (SMILES) | hygroscopicity of the sample
C=CC(=O)Nc1cc(Nc2nccc(-c3cn(CC(F)(F)F)c4ccccc34)n2)c(OC)cc1N(C)CCN(C)C [crystalline form I of p-toluenesulfonate] | slightly hygroscopic
C=CC(=O)Nc1cc(Nc2nccc(-c3cn(CC(F)(F)F)c4ccccc34)n2)c(OC)cc1N(C)CCN(C)C [crystalline form I of sulfate] | hygroscopic
C=CC(=O)Nc1cc(Nc2nccc(-c3cn(CC(F)(F)F)c4ccccc34)n2)c(OC)cc1N(C)CCN(C)C [crystalline form I of benzenesulfonate] | slightly hygroscopic
C=CC(=O)Nc1cc(Nc2nccc(-c3cn(CC(F)(F)F)c4ccccc34)n2)c(OC)cc1N(C)CCN(C)C [crystalline form I of phosphate] | slightly hygroscopic
C=CC(=O)Nc1cc(Nc2nccc(-c3cn(CC(F)(F)F)c4ccccc34)n2)c(OC)cc1N(C)CCN(C)C [crystalline form III of hydrochloride] | slightly hygroscopic
C=CC(=O)Nc1cc(Nc2nccc(-c3cn(CC(F)(F)F)c4ccccc34)n2)c(OC)cc1N(C)CCN(C)C [crystalline form I of succinate] | slightly hygroscopic

Same assay, conditions: XRPD overlay before and after DVS test

Structure (SMILES) | crystalline form of the sample after the DVS test
C=CC(=O)Nc1cc(Nc2nccc(-c3cn(CC(F)(F)F)c4ccccc34)n2)c(OC)cc1N(C)CCN(C)C [crystalline form I of p-toluenesulfonate] | does not change
C=CC(=O)Nc1cc(Nc2nccc(-c3cn(CC(F)(F)F)c4ccccc34)n2)c(OC)cc1N(C)CCN(C)C [crystalline form I of sulfate] | does not change
C=CC(=O)Nc1cc(Nc2nccc(-c3cn(CC(F)(F)F)c4ccccc34)n2)c(OC)cc1N(C)CCN(C)C [crystalline form I of benzenesulfonate] | does not change
C=CC(=O)Nc1cc(Nc2nccc(-c3cn(CC(F)(F)F)c4ccccc34)n2)c(OC)cc1N(C)CCN(C)C [crystalline form I of phosphate] | does not change
C=CC(=O)Nc1cc(Nc2nccc(-c3cn(CC(F)(F)F)c4ccccc34)n2)c(OC)cc1N(C)CCN(C)C [crystalline form III of hydrochloride] | does not change
C=CC(=O)Nc1cc(Nc2nccc(-c3cn(CC(F)(F)F)c4ccccc34)n2)c(OC)cc1N(C)CCN(C)C [crystalline form I of succinate] | does not change
